According to PubChem BioAssay (NCI):
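Exposure lasted 48 hours, with cells grown in 96-well plates and compounds tested at five concentrations. Definition used: TGI = concentration required for complete inhibition of growth.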

The compounds below were run on MCF7 breast (assay: DTP human tumour cell line panel, 48 h).
`Nc1nc(Cl)c(N)c(NCC2(CO)CCC2)n1` gave a TGI of over 100 µM. In the case of `c1ccc2c(C3CCN(CCN4CCOCC4)C3)c[nH]c2c1` (stereo not given), the TGI was over 100 µM. With `COc1ccc(OC)c2sc(N3C(=O)/C(=C/c4ccc(Cl)cc4)N=C3c3ccccc3)nc12` the TGI was 79.2 µM.

The compounds below were run on DU-145 prostate (assay: DTP human tumour cell line panel, 48 h).
Work on `CC(=O)C(=[N+]=[N-])C(=O)NCC#N` yielded a TGI of over 10 µM. With `O=C(c1ccccc1)c1ccc2nc3n(c2c1)C(c1c(F)cccc1F)SC3` (stereo not given) the TGI was over 74 µM. With `COc1nc(C)nc2sc3c(c12)CCCC3` the TGI was over 100 µM. With `C=C(Cl)c1c(OC)cccc1OCc1ccccc1` the TGI was over 100 µM. For `Nc1nc(Cl)c(N)c(NCC2(CO)CCC2)n1`, the TGI was over 100 µM. Work on `c1ccc2c(C3CCN(CCN4CCOCC4)C3)c[nH]c2c1` (stereo not given) yielded a TGI of over 100 µM. `COc1ccc(OC)c2sc(N3C(=O)/C(=C/c4ccc(Cl)cc4)N=C3c3ccccc3)nc12` gave a TGI of over 100 µM.

These compounds were tested on HCT-15 colon (assay: DTP human tumour cell line panel, 48 h).
With `CC(=O)C(=[N+]=[N-])C(=O)NCC#N` the TGI was over 10 µM. `O=C(c1ccccc1)c1ccc2nc3n(c2c1)C(c1c(F)cccc1F)SC3` (stereo not given) was tested, and the TGI was over 59 µM. `COc1nc(C)nc2sc3c(c12)CCCC3` gave a TGI of over 100 µM. In the case of `C=C(Cl)c1c(OC)cccc1OCc1ccccc1`, the TGI was over 100 µM. In the case of `Nc1nc(Cl)c(N)c(NCC2(CO)CCC2)n1`, the TGI was over 100 µM. `c1ccc2c(C3CCN(CCN4CCOCC4)C3)c[nH]c2c1` (stereo not given) gave a TGI of over 100 µM. `COc1ccc(OC)c2sc(N3C(=O)/C(=C/c4ccc(Cl)cc4)N=C3c3ccccc3)nc12` gave a TGI of over 100 µM.

Each compound was assayed on SF-268 CNS (assay: DTP human tumour cell line panel, 48 h).
`CC(=O)C(=[N+]=[N-])C(=O)NCC#N` gave a TGI of over 10 µM. `O=C(c1ccccc1)c1ccc2nc3n(c2c1)C(c1c(F)cccc1F)SC3` (stereo not given) gave a TGI of over 70.2 µM. `COc1nc(C)nc2sc3c(c12)CCCC3` showed a TGI of over 100 µM. With `C=C(Cl)c1c(OC)cccc1OCc1ccccc1` the TGI was over 100 µM. Work on `Nc1nc(Cl)c(N)c(NCC2(CO)CCC2)n1` yielded a TGI of over 100 µM. `c1ccc2c(C3CCN(CCN4CCOCC4)C3)c[nH]c2c1` (stereo not given) gave a TGI of over 100 µM. `COc1ccc(OC)c2sc(N3C(=O)/C(=C/c4ccc(Cl)cc4)N=C3c3ccccc3)nc12` gave a TGI of over 100 µM.

These compounds were tested on KM12 colon (assay: DTP human tumour cell line panel, 48 h).
`CC(=O)C(=[N+]=[N-])C(=O)NCC#N` showed a TGI of over 10 µM. Compound `O=C(c1ccccc1)c1ccc2nc3n(c2c1)C(c1c(F)cccc1F)SC3` (stereo not given) has a TGI of 14.3 µM. `COc1nc(C)nc2sc3c(c12)CCCC3` showed a TGI of over 100 µM. `C=C(Cl)c1c(OC)cccc1OCc1ccccc1` showed a TGI of over 100 µM. In the case of `Nc1nc(Cl)c(N)c(NCC2(CO)CCC2)n1`, the TGI was over 100 µM. With `c1ccc2c(C3CCN(CCN4CCOCC4)C3)c[nH]c2c1` (stereo not given) the TGI was over 100 µM. `COc1ccc(OC)c2sc(N3C(=O)/C(=C/c4ccc(Cl)cc4)N=C3c3ccccc3)nc12` was tested, and the TGI was over 100 µM.

What follows are compounds tested on OVCAR-8 ovarian (assay: DTP human tumour cell line panel, 48 h).
For `CC(=O)C(=[N+]=[N-])C(=O)NCC#N`, the TGI was over 10 µM. In the case of `O=C(c1ccccc1)c1ccc2nc3n(c2c1)C(c1c(F)cccc1F)SC3` (stereo not given), the TGI was 98.4 µM. With `COc1nc(C)nc2sc3c(c12)CCCC3` the TGI was over 100 µM. `C=C(Cl)c1c(OC)cccc1OCc1ccccc1` showed a TGI of over 100 µM. `Nc1nc(Cl)c(N)c(NCC2(CO)CCC2)n1` showed a TGI of over 100 µM. Compound `c1ccc2c(C3CCN(CCN4CCOCC4)C3)c[nH]c2c1` (stereo not given) has a TGI of over 100 µM. Work on `COc1ccc(OC)c2sc(N3C(=O)/C(=C/c4ccc(Cl)cc4)N=C3c3ccccc3)nc12` yielded a TGI of over 100 µM.

What follows are compounds tested on EKVX NSCLC (assay: DTP human tumour cell line panel, 48 h).
For `CC(=O)C(=[N+]=[N-])C(=O)NCC#N`, the TGI was over 10 µM. For `O=C(c1ccccc1)c1ccc2nc3n(c2c1)C(c1c(F)cccc1F)SC3` (stereo not given), the TGI was over 48.4 µM. `COc1nc(C)nc2sc3c(c12)CCCC3` gave a TGI of over 100 µM. For `C=C(Cl)c1c(OC)cccc1OCc1ccccc1`, the TGI was over 100 µM. `Nc1nc(Cl)c(N)c(NCC2(CO)CCC2)n1` showed a TGI of over 100 µM. Compound `c1ccc2c(C3CCN(CCN4CCOCC4)C3)c[nH]c2c1` (stereo not given) has a TGI of over 100 µM. `COc1ccc(OC)c2sc(N3C(=O)/C(=C/c4ccc(Cl)cc4)N=C3c3ccccc3)nc12` showed a TGI of over 100 µM.

These compounds were tested on SNB-75 CNS (assay: DTP human tumour cell line panel, 48 h).
In the case of `CC(=O)C(=[N+]=[N-])C(=O)NCC#N`, the TGI was over 10 µM. For `O=C(c1ccccc1)c1ccc2nc3n(c2c1)C(c1c(F)cccc1F)SC3` (stereo not given), the TGI was 29.4 µM. In the case of `COc1nc(C)nc2sc3c(c12)CCCC3`, the TGI was over 100 µM. `C=C(Cl)c1c(OC)cccc1OCc1ccccc1` gave a TGI of over 100 µM. For `Nc1nc(Cl)c(N)c(NCC2(CO)CCC2)n1`, the TGI was over 100 µM. `c1ccc2c(C3CCN(CCN4CCOCC4)C3)c[nH]c2c1` (stereo not given) showed a TGI of over 100 µM. `COc1ccc(OC)c2sc(N3C(=O)/C(=C/c4ccc(Cl)cc4)N=C3c3ccccc3)nc12` was tested, and the TGI was over 100 µM.

Each compound was assayed on SN12C renal (assay: DTP human tumour cell line panel, 48 h).
`CC(=O)C(=[N+]=[N-])C(=O)NCC#N` was tested, and the TGI was over 10 µM. `O=C(c1ccccc1)c1ccc2nc3n(c2c1)C(c1c(F)cccc1F)SC3` (stereo not given) was tested, and the TGI was 34.8 µM. `COc1nc(C)nc2sc3c(c12)CCCC3` gave a TGI of over 100 µM. Work on `C=C(Cl)c1c(OC)cccc1OCc1ccccc1` yielded a TGI of over 100 µM. Compound `Nc1nc(Cl)c(N)c(NCC2(CO)CCC2)n1` has a TGI of over 100 µM. `c1ccc2c(C3CCN(CCN4CCOCC4)C3)c[nH]c2c1` (stereo not given) gave a TGI of over 100 µM. `COc1ccc(OC)c2sc(N3C(=O)/C(=C/c4ccc(Cl)cc4)N=C3c3ccccc3)nc12` was tested, and the TGI was over 100 µM.

Each compound was assayed on SF-295 CNS (assay: DTP human tumour cell line panel, 48 h).
With `CC(=O)C(=[N+]=[N-])C(=O)NCC#N` the TGI was over 10 µM. Work on `O=C(c1ccccc1)c1ccc2nc3n(c2c1)C(c1c(F)cccc1F)SC3` (stereo not given) yielded a TGI of 13.8 µM. `COc1nc(C)nc2sc3c(c12)CCCC3` showed a TGI of over 100 µM. `C=C(Cl)c1c(OC)cccc1OCc1ccccc1` was tested, and the TGI was over 100 µM. `Nc1nc(Cl)c(N)c(NCC2(CO)CCC2)n1` was tested, and the TGI was over 100 µM. With `c1ccc2c(C3CCN(CCN4CCOCC4)C3)c[nH]c2c1` (stereo not given) the TGI was over 100 µM. `COc1ccc(OC)c2sc(N3C(=O)/C(=C/c4ccc(Cl)cc4)N=C3c3ccccc3)nc12` was tested, and the TGI was over 100 µM.

These compounds were tested on RXF 393 renal (assay: DTP human tumour cell line panel, 48 h).
Work on `CC(=O)C(=[N+]=[N-])C(=O)NCC#N` yielded a TGI of over 10 µM. `O=C(c1ccccc1)c1ccc2nc3n(c2c1)C(c1c(F)cccc1F)SC3` (stereo not given) was tested, and the TGI was 72.8 µM. `COc1nc(C)nc2sc3c(c12)CCCC3` showed a TGI of over 100 µM. In the case of `C=C(Cl)c1c(OC)cccc1OCc1ccccc1`, the TGI was 51.9 µM. For `Nc1nc(Cl)c(N)c(NCC2(CO)CCC2)n1`, the TGI was over 100 µM. `c1ccc2c(C3CCN(CCN4CCOCC4)C3)c[nH]c2c1` (stereo not given) gave a TGI of over 100 µM. Work on `COc1ccc(OC)c2sc(N3C(=O)/C(=C/c4ccc(Cl)cc4)N=C3c3ccccc3)nc12` yielded a TGI of over 100 µM.

What follows are compounds tested on TK-10 renal (assay: DTP human tumour cell line panel, 48 h).
For `CC(=O)C(=[N+]=[N-])C(=O)NCC#N`, the TGI was over 10 µM. Work on `O=C(c1ccccc1)c1ccc2nc3n(c2c1)C(c1c(F)cccc1F)SC3` (stereo not given) yielded a TGI of over 100 µM. In the case of `COc1nc(C)nc2sc3c(c12)CCCC3`, the TGI was over 100 µM. `C=C(Cl)c1c(OC)cccc1OCc1ccccc1` was tested, and the TGI was over 100 µM. Work on `Nc1nc(Cl)c(N)c(NCC2(CO)CCC2)n1` yielded a TGI of over 100 µM. Work on `c1ccc2c(C3CCN(CCN4CCOCC4)C3)c[nH]c2c1` (stereo not given) yielded a TGI of over 100 µM. `COc1ccc(OC)c2sc(N3C(=O)/C(=C/c4ccc(Cl)cc4)N=C3c3ccccc3)nc12` gave a TGI of over 100 µM.

The compounds below were run on NCI-H226 lung (assay: DTP human tumour cell line panel, 48 h).
`CC(=O)C(=[N+]=[N-])C(=O)NCC#N` gave a TGI of over 10 µM. Compound `O=C(c1ccccc1)c1ccc2nc3n(c2c1)C(c1c(F)cccc1F)SC3` (stereo not given) has a TGI of over 79.2 µM. `COc1nc(C)nc2sc3c(c12)CCCC3` showed a TGI of over 100 µM. Work on `C=C(Cl)c1c(OC)cccc1OCc1ccccc1` yielded a TGI of over 100 µM. Compound `Nc1nc(Cl)c(N)c(NCC2(CO)CCC2)n1` has a TGI of over 100 µM.

The compounds below were run on HT29 colon (assay: DTP human tumour cell line panel, 48 h).
Compound `CC(=O)C(=[N+]=[N-])C(=O)NCC#N` has a TGI of over 10 µM. `O=C(c1ccccc1)c1ccc2nc3n(c2c1)C(c1c(F)cccc1F)SC3` (stereo not given) gave a TGI of 39.5 µM. `COc1nc(C)nc2sc3c(c12)CCCC3` gave a TGI of over 100 µM. In the case of `C=C(Cl)c1c(OC)cccc1OCc1ccccc1`, the TGI was over 100 µM. `Nc1nc(Cl)c(N)c(NCC2(CO)CCC2)n1` gave a TGI of over 100 µM. For `c1ccc2c(C3CCN(CCN4CCOCC4)C3)c[nH]c2c1` (stereo not given), the TGI was over 100 µM. With `COc1ccc(OC)c2sc(N3C(=O)/C(=C/c4ccc(Cl)cc4)N=C3c3ccccc3)nc12` the TGI was over 100 µM.

Each compound was assayed on UO-31 renal (assay: DTP human tumour cell line panel, 48 h).
`CC(=O)C(=[N+]=[N-])C(=O)NCC#N` showed a TGI of over 10 µM. For `O=C(c1ccccc1)c1ccc2nc3n(c2c1)C(c1c(F)cccc1F)SC3` (stereo not given), the TGI was 56.5 µM. Compound `COc1nc(C)nc2sc3c(c12)CCCC3` has a TGI of over 100 µM. `C=C(Cl)c1c(OC)cccc1OCc1ccccc1` was tested, and the TGI was over 100 µM. Work on `Nc1nc(Cl)c(N)c(NCC2(CO)CCC2)n1` yielded a TGI of over 100 µM. Work on `c1ccc2c(C3CCN(CCN4CCOCC4)C3)c[nH]c2c1` (stereo not given) yielded a TGI of over 100 µM. With `COc1ccc(OC)c2sc(N3C(=O)/C(=C/c4ccc(Cl)cc4)N=C3c3ccccc3)nc12` the TGI was over 100 µM.

These compounds were tested on SNB-19 CNS (assay: DTP human tumour cell line panel, 48 h).
`CC(=O)C(=[N+]=[N-])C(=O)NCC#N` gave a TGI of over 10 µM.
